pIC50: −log10 of the molar value. Active and inactive are the calls of the source. No cut-off for these calls is given here.
Columns and labels:
[1] = biological target: T1, Calpain-1 catalytic subunit (Homo sapiens) (UniProt P07384); assay: Inhibition of calpain (unknown origin) at 1 uM using Suc-LY-AMC as fluorogenic substrate after 60 mins by spectrofluorometric analysis relative to calpeptin
T1 sequence (whole entry): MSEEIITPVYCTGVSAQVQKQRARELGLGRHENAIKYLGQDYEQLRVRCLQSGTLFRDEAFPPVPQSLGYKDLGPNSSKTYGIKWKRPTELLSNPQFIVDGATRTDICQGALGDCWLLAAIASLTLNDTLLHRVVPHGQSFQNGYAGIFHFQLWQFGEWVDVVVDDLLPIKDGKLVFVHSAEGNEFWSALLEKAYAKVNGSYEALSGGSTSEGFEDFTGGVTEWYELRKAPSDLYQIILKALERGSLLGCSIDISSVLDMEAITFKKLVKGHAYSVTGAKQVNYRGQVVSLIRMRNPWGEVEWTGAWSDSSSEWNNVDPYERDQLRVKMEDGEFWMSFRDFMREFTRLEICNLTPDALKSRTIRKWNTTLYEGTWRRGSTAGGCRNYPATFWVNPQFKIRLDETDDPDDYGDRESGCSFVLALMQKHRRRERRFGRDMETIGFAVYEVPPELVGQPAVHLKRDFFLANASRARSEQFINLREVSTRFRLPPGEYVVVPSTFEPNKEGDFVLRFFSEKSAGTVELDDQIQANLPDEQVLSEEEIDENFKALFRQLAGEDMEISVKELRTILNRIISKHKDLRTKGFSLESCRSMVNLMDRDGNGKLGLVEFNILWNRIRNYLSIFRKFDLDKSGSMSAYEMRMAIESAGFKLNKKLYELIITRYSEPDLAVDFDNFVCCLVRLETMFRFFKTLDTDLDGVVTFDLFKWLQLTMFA

[2] = biological target: T2, Calpain-1 catalytic subunit (Homo sapiens, UniProt P07384); assay: Inhibition of calpain (unknown origin) using Suc-LY-AMC as fluorogenic substrate after 60 mins by spectrofluorometric analysis
T2 sequence (P07384 whole entry): T1 sequence (whole entry)

HK-2 [3] = assay: Cytoprotective activity against NaN3-induced apoptosis in human HK2 cells at 1 uM pre-incubated with 200 mM NaN3 for 30 mins followed by 24 hrs recovery with compound propidium iodide staining-based flow cytometric analysis (reference value: 27.3 +/- 4.9%); assay type: functional
HK-2 [4] = assay: Induction of apoptosis in human HK2 cells at 1 uM after 24 hrs by propidium iodide staining-based flow cytometric analysis (reference value: 3.8 +/- 1%); assay type: cell-based; conditions: hk-2, 24 h
HK-2 [5] = assay: Cytoprotective activity against NaN3-induced apoptosis in human HK2 cells at 0.1 to 10 uM pre-incubated with NaN3 for 30 mins followed by 24 hrs recovery with compound propidium iodide staining-based flow cytometric analysis; assay type: functional, cell-based
HK-2 [6] = assay: Cytotoxicity against human HK2 cells at 0.1 to 10 uM after 24 hrs by MTT assay; assay type: cell-based; conditions: hk-2, 24 h
[7] = biological target: T1, Calpain-1 catalytic subunit (Homo sapiens); assay: Uncompetitive inhibition of calpain (unknown origin) at 1 to 10 uM using Suc-LY-AMC as fluorogenic substrate after 60 mins by Lineweaver-Burk plot analysis

SMILES	inhibition [1] [%]	pIC50 [2]	other results
CCCCN/C(=C1/N=CN(CCOC)C1=O)c1cc2ccccc2[nH]1	75.4	6.46	–
COCCCN/C(=C1/N=CN(CCOC)C1=O)c1cc2ccccc2[nH]1	71.8	5.99	–
COCCN/C(=C1/N=CN(CCOC)C1=O)c1[nH]c2ccccc2c1I	76.8	5.97	–
CCCC[C@@H](C=O)NC(=O)[C@H](CC(C)C)NC(=O)OCc1ccccc1 [CALPEPTIN]	–	–	Activity (HK-2 [3]): 9.9%; Activity (HK-2 [4]): 5.9%
COCCN/C(=C1/N=CN(CCOC)C1=O)c1[nH]c2ccccc2c1Br	62.9	< 6.00	–
CC(C)N/C(=C1/N=CN(C(C)C)C1=O)c1cc2ccccc2[nH]1	57.8	< 6.00	–
CCCCN/C(=C1/N=CN(CCCC)C1=O)c1cc2ccccc2[nH]1	14	–	–
COCCN/C(=C1/N=CN(CCOC)C1=O)c1cc2ccccc2[nH]1	73.7	6.34	Activity (HK-2 [5]): Active; Activity (HK-2 [6]): Non-Toxic; inhibition [7]: Active

Further lines, with some results ahead:

inhibition [1] [%]	pIC50 [2]	SMILES	other results
11.7	–	O=C1/C(=C(\NCc2ccccc2)c2cc3cccnc3[nH]2)N=CN1Cc1ccccc1	–
71.9	< 6.00	COCCN/C(=C1/N=CN(CCOC)C1=O)c1[nH]c2ccccc2c1Cl	–
21.5	< 6.00	COCCN/C(=C1/N=C(c2ccccc2)N(CCOC)C1=O)c1cc2ccccc2[nH]1	–
9	–	O=C1/C(=C(\NC2CCCCC2)c2cc3ccccc3[nH]2)N=CN1C1CCCCC1	–
37.2	–	CC(C)N/C(=C1/N=CN(C(C)C)C1=O)c1cc2cccnc2[nH]1	–
4.5	–	O=C1/C(=C(\NC2CCCCC2)c2cc3cccnc3[nH]2)N=CN1C1CCCCC1	–
79.4	6.42	COCCN/C(=C1/N=CN(CCOC)C1=O)c1cc2cccnc2[nH]1	–
28.2	–	O=C1/C(=C(\NCc2ccccc2)c2cc3ccccc3[nH]2)N=CN1Cc1ccccc1	–
93	7.70	COCCN/C(=C1/N=C(C)N(CCOC)C1=O)c1cc2ccccc2[nH]1	–
64.6	< 6.00	COCCN1C=N/C(=C(/NCCN(C)C)c2cc3ccccc3[nH]2)C1=O	–

Source: ChEMBL document CHEMBL4261583, “Discovery of potent calpain inhibitors based on the azolo-imidazolidenone scaffold” (Eur J Med Chem, 2018)
